According to patent US20050118641A1, “Design Technique for Use in Engineering of Deamidation Rates of Peptides, Proteins, Hormones, and Peptide-Like, Protein-Like and Hormone-Like Molecules” (priority 2003, published 2005):

Legend:
Type in all cases: physicochemical
[1] = Deamidation of Asn pentapeptides GlyXxxAsnYyyGly (medians over Xxx)
Text: (§1) Median values for carboxyl side residues of Asn and Gln were used in these derivations. The measurements for Asn are the most reliable and are used for these derivations. […] The half-time of hydrolysis was assumed to be 8010 days, but may be faster or slower. Regardless of the derivation based on Asn, calculations of Gln based on these values are found to approximately agree with the currently available data.
(§2) The natural log of the median hydrolysis-corrected rate constants times 100 (s^−1) for the Asn and Gln pentapeptides as a function of carboxyl-side residue as computed from the experimental data are listed in Table 1. The first columns are (100)(ln(k)) and are directly proportional to the Arrhenius activation energy. The second columns are normalized to Gly. This leaves only the side-chain effects and also defines the effect of the Gly hydrogen side-chain or a similar atom with mostly steric effects in this β-position as zero.
For most Asn peptides the computed result should be within 10% or less of the experimental value in 37° C., pH 7.4, 0.15 M Tris-HCl buffer or similar conditions. Gln rates are more affected by hydrolysis and cannot be verified to as high an accuracy with the current data. For Gln peptides and long lived Asn peptides, correction for hydrolysis should be made. With a hydrolysis value of 8010 days: t1/2total=1/(1/8010+1/t1/2calculated)

[2] = Deamidation of Gln pentapeptides GlyXxxGlnYyyGly (medians over Xxx); conditions: Gln versus Asn peptide
Text: as §1, §2
This model for Asn deamidation is also applicable to Gln deamidation, although Gln deamidation rates have not been as well characterized. While there may be important differences in the functional group effects for the longer Gln chain, the steric effects are similar as illustrated in FIG. 6. […] The fundamental difference between Asn and Gln rates has been removed by subtracting the Gln values from GlyXxxGlnGlyGly and the Asn values from GlyXxxAsnGlyGly.

[3] = Deamidation of insulin at Asn(B3)
Experimental: As an example, consider the sequence Phe-ValAsn(B3)GlnHis of insulin. This peptide deamidates at Asn(B3) with a half-time of 136 days at 37° C., pH 7.4 sodium acetate, 0.1% methyl paraben, 0.7% NaCl.

Q: Which “deamidation rate (50% chance of deamidating)” value [1] does the source give for GlyXxxAsnGlyGly here?
A: about 1 day

Q: For GlyXxxGlnGlyGly, which “difference between GlyXxxGlnGlyGly and GlyXxxAsnGlyGly, (100)ln(k) scale” value [2] is on record?
A: 644.8

Q: Which experimental deamidation half-time ([1]; 37° C., pH 7.4, 0.15 M Tris-HCl buffer) does the source give for GlyXxxAsnThrGly here?
A: 46.2 days

Q: With insulin as the substance, how does the “deamidation half-time at Asn(B3)” value ([3]; 37° C., pH 7.4 sodium acetate, 0.1% methyl paraben, 0.7% NaCl) read?
A: 136 days

Q: And the “(100)ln(k) subtracted from the AsnGly value” ([3]; converted from the 136 day half-time)?
A: 478.3
